Results from patent US11344510B2, “Arylcyclohexylamine derivatives and their use in the treatment of psychiatric disorders” (Gilgamesh Pharmaceuticals, Inc., priority 2019, dated 2022).
Read-outs that look alike come from different tables or passages of the source.

Experiments:
[1] = MLM stability (High Activity); assay type: in vitro ADME, BALB/c mice; settings: male, BALB/c, mouse, liver microsomes, pH 7.4, Condition 2 (High Activity), 1.0 mg protein/mL
In short: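 Pooled male BALB/c mouse liver microsomes (1.0 mg/mL) in 100 mM PBS pH 7.4 with NADPH-regenerating system; compound 1 μM, 37 °C, five time points over 60 min, duplicate; NADPH-free controls. Parent remaining by LC-MS/MS; kel, t1/2 and Clint from linear regression of ln(AUC) versus time.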

[2] = tested on: monoamine transporters, MATs (SERT, NET, DAT, VMAT2); test: Monoamine uptake inhibition, monoamine transporters collectively; assay type: cell-based; settings: in words
Protocol: The ability of the compounds of the present invention to inhibit uptake of monoamines by the serotonin transporter (SERT), norepinephrine transporter (NET), dopamine transporter (DAT), and vesicular monoamine transporter 2 (VMAT2) (collectively monoamine transporters, MATs) was measured using fluorescent substrate uptake assays in transfected cells (Table 14). The binding affinities of select compounds were also determined in radioligand displacement assays at SERT, NET, and/or DAT (Table 14).
Uptake Inhibition. The ability of test compounds to block monoamine uptake by SERT, NET, DAT, and VMAT2 was determined using the Neurotransmitter Transporter Uptake Assay Kit manufactured by Molecular Devices (Cat #R8173). Briefly, stably transfected cells expressing the MAT of interest (HEK293 cells for SERT and NET; CHO cells for DAT) were grown and plated into 384-well plates at a concentration of 20,000 cells per well. Plates were then incubated for 16-20 h at 37° C. and 5% CO2. The medium was then aspirated and replaced with 25 μL of assay buffer (20 mM HEPES in HBSS, containing 0.1% BSA) containing the test compounds at the appropriate concentrations. Plates were then centrifuged at 300 rpm for 15 s and then incubated at 37° C. for 30 minutes. At this time, 25 μL of the proprietary fluorescent dye solution was added, the plates were incubated at 37° C. for 60 minutes, and then fluorescence was quantified on a plate reader (excitation wavelength=440 nm, emission wavelength=520 nm). The proprietary dye solution contains a mixture of 1) a fluorescent dye that mimics the endogenous substrates of MATs and is thereby actively transported to the intracellular compartment in the absence of an inhibitor and 2) a masking dye that inhibits the fluorescence of dye 1 in the extracellular compartment. Therefore, the overall fluorescence of the system increases as the fluorescent dye is transported into the cells.

[3] = Oral bioavailability in mice, Method B; assay type: in vivo; settings: CD-1 mice; for AUC0-inf (iv) / AUC0-last (po) / AUC(0-inf): Method B: values represent AUC0-last (footnote); for F: 10 mg/kg; for Cmax / AUC(0-inf) / half-life: male, mouse
Protocol: Animals. Male CD-1 mice were used in these studies Animals were randomly assigned to treatment groups and were fasted for 4 h before oral dosing.
Drugs. Test compounds were dissolved in a vehicle consisting of normal saline (compounds 19S and 88R) or a mixture of 5% v/v N-methyl-2-pyrrolidone, 5% v/v Solutol HS-15, and 90% v/v normal saline (compounds 11S, 11R, 114S, and 114R). They were then administered intravenously (iv) or orally (po) at a dose of 10 mg/kg (calculated based on freebase) and at a volume of 5 mL/kg body weight. Compounds were tested as the racemates (indicated by “rac” nomenclature) or pure enantiomers (indicated by “R” or “S” nomenclature).
Sample Collection and Bioanalysis. Blood samples (approximately 60 μL) were collected under light isoflurane anesthesia (Surgivet®) from the retro orbital plexus at 0.08, 0.25, 0.5, 1, 2, 4, 8, and 24 h (4 animals per time point) Immediately after blood collection, plasma was harvested by centrifugation at 4000 rpm for 10 min at 4° C. and samples were stored at −70±10° C. until bioanalysis. Following blood collection, animals were immediately sacrificed, the abdominal vena-cava was cut open, and the whole body was perfused from the heart using 10 mL of normal saline, and brain samples were collected from all animals After isolation, brain samples were rinsed three times in ice-cold normal saline (for 5-10 seconds/rinse using ˜5-10 mL normal saline in disposable petri dish for each rinse) and dried on blotting paper. Brain samples were homogenized using ice-cold phosphate-buffered saline (pH 7.4). Total homogenate volume was three times the tissue weight. All homogenates were stored at −70±10° C. until bioanalysis. For bioanalysis, 25 μL aliquots of plasma/brain study samples or spiked plasma/brain calibration standards were added to individual pre-labeled micro-centrifuge tubes followed by 100 μL of an internal standard solution (glipizide, 500 ng/mL in acetonitrile) except for blanks, where 100 μL of acetonitrile was added. Samples were vortexed for 5 minutes and then centrifuged for 10 minutes at 4000 rpm at 4° C. Following centrifugation, 100 μL of each clear supernatant was transferred to a 96 well plate and analyzed with a fit-for-purpose LC-MS/MS method, with authentic samples of each analyte used for calibration and identification.
Data Analysis. Pharmacokinetic parameters were estimated using the non-compartmental analysis tool of Phoenix® WinNonlin software (Ver 8.0).

[4] = calculated based on brain exposure (AUC0-last), Method B
[5] = plasma, 10 mg/kg iv, read-out: AUC0-inf (iv) (converted)
[6] = plasma, 10 mg/kg iv, Method B, read-out: t1/2 (iv)
[7] = plasma, 10 mg/kg po, read-out: AUC0-inf (po) (converted)
[8] = plasma, 10 mg/kg po, Method B, read-out: t1/2 (po)
[9] = plasma, Method B: based on AUC0-last
[10] = brain, 10 mg/kg iv, Method B, read-out: t1/2 (iv)
[11] = brain, 10 mg/kg po, Method B, read-out: t1/2 (po)

## CN[C@]1(c2ccccc2)CCCCC1=O [Compound 14S, (S)-2-(methylamino)-2-phenylcyclohexan-1-one]
[1]
  half-life at 1 μM: 4.38 h
  microsomal CLint at 1 μM: 3 µL/min/mg

## CN[C@@]1(c2ccccc2)CCCCC1=O [Compound 14R, (R)-2-(methylamino)-2-phenylcyclohexan-1-one]
[1]
  half-life at 1 μM: 3.28 h
  microsomal CLint at 1 μM: 4 µL/min/mg
[2]
  selectivity for NMDAR (over MATs): greater selectivity for NMDAR

## COCCNC1(c2ccccc2)CCCCC1=O (racemic) [Compound 29rac, 2-((2-methoxyethyl)amino)-2-phenylcyclohexan-1-one]
[1]
  half-life at 1 μM: 0.283 h
  microsomal CLint at 1 μM: 41 µL/min/mg
[2]
  selectivity for NMDAR (over MATs): greater selectivity for NMDAR

## Cc1ccccc1[C@@]1(N)CCCCC1=O [Compound 114S, (S)-2-amino-2-(o-tolyl)cyclohexan-1-one]
[3]; brain, 10 mg/kg iv
  AUC0-inf (iv): 244,634 ng*min/g
[3]; brain, 10 mg/kg po
  AUC0-last (po): 86,338 ng*min/g
[3]; [4]
  F: 35%
[3]; brain, 10 mg/kg po, Method B
  Cmax: 825 ng/g
[3]; [5]
  AUC(0-inf): 757 ng·h/mL
[3]; [6]
  half-life: 1.34 h
[3]; plasma, 10 mg/kg po, Method B
  Cmax: 746 ng/mL
[3]; [7]
  AUC(0-inf): 1470 ng·h/mL
[3]; [8]
  half-life: 1.32 h
[3]; [9]
  F: 194%
[2]
  selectivity for NMDAR (over MATs): greater selectivity for NMDAR

## O=C1CCCCC1(c1ccccc1)N1CCCC1 (racemic) [Compound 27rac, 2-phenyl-2-(pyrrolidin-1-yl)cyclohexan-1-one]
[1]
  half-life at 1 μM: 0.583 h
  microsomal CLint at 1 μM: 20 µL/min/mg

## [2H]C([2H])([2H])N[C@@]1(c2ccccc2)CCCCC1=O [Compound 88R, (R)-2-((methyl-d3)amino)-2-phenylcyclohexan-1-one]
[3]; brain, 10 mg/kg iv
  AUC0-inf (iv): 334,518 ng*min/g
[3]; brain, 10 mg/kg po
  AUC0-last (po): 143,445 ng*min/g
[3]; [4]
  F: 43%
[3]; [10]
  half-life: 0.6 h
[3]; brain, 10 mg/kg po, Method B
  Cmax: 3100 ng/g
[3]; [11]
  half-life: 1.33 h
[3]; [5]
  AUC(0-inf): 1530 ng·h/mL
[3]; [6]
  half-life: 0.57 h
[3]; plasma, 10 mg/kg po, Method B
  Cmax: 621 ng/mL
[3]; [7]
  AUC(0-inf): 718 ng·h/mL
[3]; [8]
  half-life: 1.38 h
[3]; [9]
  F: 47%
[1]
  half-life at 1 μM: 1.76 h
  microsomal CLint at 1 μM: 7 µL/min/mg
[2]
  selectivity for NMDAR (over MATs): greater selectivity for NMDAR

## O=C1CCCC[C@@]1(c1ccccc1)N1CCC1 [Compound 84S, (S)-2-(azetidin-1-yl)-2-phenyl-cyclohexan-1-one]
[1]
  half-life at 1 μM: 0.322 h
  microsomal CLint at 1 μM: 36 µL/min/mg

## N[C@]1(c2ccccc2)CCCCC1=O [Compound 11S, (S)-2-amino-2-phenyl-cyclohexan-1-one]
[3]; brain, 10 mg/kg iv
  AUC0-inf (iv): 434,023 ng*min/g
[3]; brain, 10 mg/kg po
  AUC0-last (po): 292,247 ng*min/g
[3]; [4]
  F: 67%
[3]; [10]
  half-life: 0.7 h
[3]; brain, 10 mg/kg po, Method B
  Cmax: 2190 ng/g
[3]; [5]
  AUC(0-inf): 3420 ng·h/mL
[3]; [6]
  half-life: 1.06 h
[3]; plasma, 10 mg/kg po, Method B
  Cmax: 2130 ng/mL
[3]; [7]
  AUC(0-inf): 4200 ng·h/mL
[3]; [9]
  F: 123%
[1]
  half-life at 1 μM: 3.62 h
  microsomal CLint at 1 μM: 3 µL/min/mg
[2]
  selectivity for NMDAR (over MATs): greater selectivity for NMDAR

## CNC1(c2ccccc2Cl)CCCCC1=O (racemic) [rac-ketamine, racemic ketamine, reference compound]
[1]
  half-life at 1 μM: 0.155 h
  microsomal CLint at 1 μM: 75 µL/min/mg

## CN[C@]1(c2cccc(F)c2)CCCCC1=O [Compound 19S, (5)-2-(3-fluorophenyl)-2-(methylamino)cyclohexan-1-one]
[3]; brain, 10 mg/kg iv
  AUC0-inf (iv): 171,028 ng*min/g
[3]; brain, 10 mg/kg po
  AUC0-last (po): 23,552 ng*min/g
[3]; [4]
  F: 14%
[3]; [10]
  half-life: 1.93 h
[3]; brain, 10 mg/kg po, Method B
  Cmax: 436 ng/g
[3]; [11]
  half-life: 2.35 h
[3]; [5]
  AUC(0-inf): 1130 ng·h/mL
[3]; [6]
  half-life: 1.9 h
[3]; plasma, 10 mg/kg po, Method B
  Cmax: 442 ng/mL
[3]; [7]
  AUC(0-inf): 671 ng·h/mL
[3]; [8]
  half-life: 2.28 h
[3]; [9]
  F: 59%
[1]
  half-life at 1 μM: 1.01 h
  microsomal CLint at 1 μM: 11 µL/min/mg
[2]
  selectivity for NMDAR (over MATs): greater selectivity for NMDAR

## Cc1ccccc1[C@]1(N)CCCCC1=O [Compound 114R, (R)-2-amino-2-(o-tolyl)cyclohexan-1-one]
[3]; brain, 10 mg/kg iv
  AUC0-inf (iv): 155,752 ng*min/g
[3]; brain, 10 mg/kg po
  AUC0-last (po): 38,185 ng*min/g
[3]; [4]
  F: 25%
[3]; [10]
  half-life: 0.32 h
[3]; brain, 10 mg/kg po, Method B
  Cmax: 683 ng/g
[3]; [11]
  half-life: 1.12 h
[3]; [5]
  AUC(0-inf): 325 ng·h/mL
[3]; [6]
  half-life: 0.75 h
[3]; plasma, 10 mg/kg po, Method B
  Cmax: 319 ng/mL
[3]; [7]
  AUC(0-inf): 430 ng·h/mL
[3]; [8]
  half-life: 1.28 h
[3]; [9]
  F: 132%

## N[C@@]1(c2ccccc2)CCCCC1=O [Compound 11R, (R)-2-amino-2-phenyl-cyclohexan-1-one]
[3]; brain, 10 mg/kg iv
  AUC0-inf (iv): 621,341 ng*min/g
[3]; brain, 10 mg/kg po
  AUC0-last (po): 220,091 ng*min/g
[3]; [4]
  F: 35%
[3]; [10]
  half-life: 1.17 h
[3]; brain, 10 mg/kg po, Method B
  Cmax: 1470 ng/g
[3]; [11]
  half-life: 1.9 h
[3]; [5]
  AUC(0-inf): 5570 ng·h/mL
[3]; [6]
  half-life: 1.11 h
[3]; plasma, 10 mg/kg po, Method B
  Cmax: 1430 ng/mL
[3]; [7]
  AUC(0-inf): 4210 ng·h/mL
[3]; [8]
  half-life: 2.41 h
[3]; [9]
  F: 76%
[1]
  half-life at 1 μM: 2.82 h
  microsomal CLint at 1 μM: 4 µL/min/mg

## O=C1CCCC[C@]1(c1ccccc1)N1CCC1 [Compound 84R, (R)-2-(azetidin-1-yl)-2-phenyl-cyclohexan-1-one]
[1]
  half-life at 1 μM: 0.378 h
  microsomal CLint at 1 μM: 30 µL/min/mg
